Measurements taken from article PMC8577999 (Slas Discovery, 2021).
Several values for one entry are separate records, joined by “and”; a condition that tells them apart may be missing. Identical values can stand only once. Counter-ions that a name gives are not always drawn. Square brackets hold non-standard residues; d marks the D form. Peptide text beside a SMILES is read from it. Nle = CCCC[C@H](N)C(=O)O

Tests used:
[1] = test system: SARS-CoV-2 (USA-WA1/2020 isolate); format: cell-based
[2] = test system: MLV reporter luciferase virus pseudotyped with the SARS-CoV-2 Spike protein (SARS2-S)
SARS2-S WT = assay: microbe, parasite or virus in culture; format: cell-based, SARS-CoV-2; conditions: Severe acute respiratory syndrome coronavirus 2, read-out: WT IC50
SARS-CoV-2 = format: cell-based
SARS2-S = assay: microbe, parasite or virus in culture; format: cell-based, SARS-CoV-2; conditions: Severe acute respiratory syndrome coronavirus 2, read-out: SARS2-S IC50
[3] = test system: main viral protease (MPRO); conditions: read-out: MPRO IC50; cited from earlier work
VSV-G = assay: microbe, parasite or virus in culture; format: cell-based; conditions: Vesicular stomatitis virus, read-out: VSV-G IC50
SARS1-S = assay: microbe, parasite or virus in culture; format: cell-based, SARS-CoV-1

Row | SMILES | activity against wild type SARS-CoV-2 (CPE) [1] | higher potency as compared to the best ReFRAME hit, SR-806 (VBY-825) [2] | higher specificity as compared to the best ReFRAME hit, SR-806 (VBY-825) [2] | therapeutic index (TI=CC50/IC50) [2] | IC50 (SARS2-S WT) | activity in plaque assays of wild type SARS-CoV-2 infection (SARS-CoV-2) | IC50 (SARS2-S) | IC50 [3] | IC50 (VSV-G) | EC50 ([1]; read-out: EC50, SARS-CoV-2-induced CPE assay) | less potent against SARS1-S than against SARS2-S (SARS1-S) | IC50 (SARS1-S; Severe acute respiratory syndrome coronavirus, read-out: SARS1-S IC50)
1 | CN(C)C(=O)COC(=O)Cc1ccc(OC(=O)c2ccc(NC(=N)N)cc2)cc1 [Camostat mesylate, reference compound] | did not shown any activity |  |  |  |  |  |  |  |  |  |  | 
2 | CCCC[C@@H](C=O)NC(=O)[C@H](CC(C)C)NC(=O)[C@H](CC(C)C)NC(C)=O [SR-372, calpain inhibitor I] (Ac-Leu-Leu-[Nle]-aldehyde) |  | 3.5 fold | > 3 fold | greater than 100 |  |  |  |  |  |  |  | 
3 | CCCC[C@@H](C=O)NC(=O)[C@H](CC(C)C)NC(=O)OCc1ccccc1 [SR-914, calpeptin] |  | 7.1 fold | higher than 7.1 fold | greater than 100 | 0.00378 µM | further confirmed | 0.0109 ± 0.00078 µM | 10.4 µM | > 20 µM | 0.174 µM and 0.163 µM | ~8 fold | 0.0772 ± 0.00469 µM
